No end group written: not given here.
Key:
[1] = peptide solubility; format: physicochemical; conditions: compared among Amb 2-18.1, Amb2-19.1, Amb2-20.1 and Amb2-21.1
Excerpt: Peptides Amb 2-18.1 (SEQ ID NO:126), Amb2-19.1 (SEQ ID NO:127), Amb2-20.1 (SEQ ID NO:128) and Amb2-21.1 (SEQ ID NO:129) correspond to different lengths of the original peptide which were synthesized (including the serine substitution at position 212) and analyzed to determine solubility. […] Thus, substitutions and/or amino acid additions to this peptide were made in order to further increase the solubility while maintaining T cell reactivity. For example, in peptides Amb2-22.1 (SEQ ID NO:130) and Amb2-23.1 (SEQ ID NO:131) isoleucine at position 201 was substituted with glutamic acid (Amb2-22.1) or lysine (Amb2-23.1) to lower the pI of the resulting peptide and avoid precipitation of the peptide at physiological pH. Similarly, the following peptides were also synthesized with various substitutions or additions designed to decrease the pI and increase the hydrophilicity of the peptide, each is shown in Figure 25: Amb2-26.1 (SEQ ID NO:132); Amb2-28.1 (SEQ ID NO:133); Amb2-30.1 (SEQ ID NO:134); Amb2-32.1 (SEQ ID NO:135); Amb2-33.1 (SEQ ID NO:136); Amb2-34.1 (SEQ ID NO:137); Amb2-35.1 (SEQ ID NO:138); Amb2-36.1 (SEQ ID NO:139); Amb2-37.1 (SEQ ID NO:140); and Amb2-38.1 (SEQ ID NO:141).

[2] = system: Amb a I.1 stimulated T cell line plus APC; assay: assessment of peptide toxicity in Amb a I.1 primed secondary T cell culture; format: cell-based, human
Protocol: This could reflect a potential toxic effect of the peptides in the T cell assays. To investigate this possibility, an assay was conducted to determine the ability of the peptides to inhibit T cell proliferation. Inhibition was defined as proliferation of a T cell line in response to the peptide which was less than half the proliferation of media control T cell lines plus autologous EBV transformed antigen presenting cells. […]

[3] = system: basophils present in heparinized whole blood; assay: histamine release assay; format: cell-based, human; conditions: blood of ragweed-allergic patient #1273, similar in seven other patients; Amb a I.1 from 10 µg/ml in 10-fold dilutions, peptides 50 µg/ml to 0.08 µg/ml
Protocol: The histamine release assay used for these studies is based on the detection of an acylated derivative of histamine using a specific monoclonal antibody (Morel, A.M. and Delaage, M.A. (1988) J. Allergy Clin. Immunol. 82:646-654). The assay was performed in two steps: 1) the release of histamine from basophils present in heparinized whole blood in the presence of different concentrations of protein or peptide; and 2) the assay of histamine present in the supernatants of the release reactions following cell removal by centrifugation. The reagents for this second step are available commercially as a competitive radioimmunoassay from AMAC Inc. (Westbrook, ME).
Heparinized whole blood was drawn from ragweed allergic patients. […] The tubes were then centrifuged in a microfuge at 1500 RPM for 3 minutes and the supernatants were carefully removed and analyzed or stored at -20°C for later analysis. […]
For the competition radioimmunoassay, a 50 µl aliquot of each release supernatant was mixed with 150 µl of histamine release buffer (supplied with the kit from AMAC). […] The solutions were aspirated from the tubes and the radioactivity bound to the tube was measured on a gamma counter (Cobra 5005, Beckman, Inc.) for two minutes per tube. […]
Six or more 10-fold dilutions of Amb a I.1 starting at 10 µg/ml (approximately 0.66 µM) were analyzed. […]

solubility [1] | histamine release [3] | Sequence | # patients ([2]; patients with toxicity (proliferation less than half of media control) / patients tested) | (%)patients ([2]; percent of patients with toxicity (proliferation less than half of media control)) [%] | both ([2]; toxicity at 5 µg/ml and 50 µg/ml peptide, fraction of patients with toxicity) | low dose only ([2]; toxicity only at 5 µg/ml peptide, fraction of patients with toxicity) | high dose only ([2]; toxicity only at 50 µg/ml peptide, fraction of patients with toxicity)
most soluble | – | SISGSSQIWIDHSSLSKS [AMB2-19.1] | – | – | – | – | –
– | no discernible histamine release | KGTVGGKDGDIYTVTSELDDDVAN [AMB 1-2.1] | 3/46 | 7 | 0 | 2/3 | 1/3

— patent EP0770681A2, “T cell epitopes of the major allergens from ambrosia artemisiifolia” (IMMULOGIC PHARMACEUTICAL CORPORATION, priority 1992, dated 1993)
